Experimental data reported in US11071835B2, “Inhalable medicaments” (PHARMACHEMIE B.V., priority 2013, dated 2021).
Counter-ions that a name gives are not always drawn.

Conditions: batch B (formoterol 7544MO) versus batch A (formoterol 7544MA); 160/4.5 μg product; same inhaler, budesonide and lactose
Procedure: A pharmacokinetic (PK) clinical study was conducted. The PK study assessed a number of key formulation parameters, metered dose (device dose cup volume), formulation blend strength, drug substance particle size and lactose particle size, using a stepwise approach. The PK study was carried out on the middle strength product (160/4.5 μg). […] For both batch A and batch B, the inhaler, the budesonide and the lactose were the same.

COc1ccc(CC(C)NCC(O)c2ccc(O)c(NC=O)c2)cc1 (stereo not shown) [7544MO, formoterol fumarate dihydrate]
lowering of formoterol Cmax: more than 20%
